Values of other authors, collected in US20240401150A1, “PANCREATIC DUCTAL ADENOCARCINOMA SIGNATURES AND USES THEREOF” (The Broad Institute, Inc., priority 2022, published 2024).

How the values were obtained:
CXCR4 = CXCR4 (Homo sapiens, UniProt P61073); settings: literature (ref 133)
[1] = tested on: intra-tumoral cytotoxic T cells; settings: previously identified (refs 20, 61)

CXCR4, sequence (P61073 whole entry): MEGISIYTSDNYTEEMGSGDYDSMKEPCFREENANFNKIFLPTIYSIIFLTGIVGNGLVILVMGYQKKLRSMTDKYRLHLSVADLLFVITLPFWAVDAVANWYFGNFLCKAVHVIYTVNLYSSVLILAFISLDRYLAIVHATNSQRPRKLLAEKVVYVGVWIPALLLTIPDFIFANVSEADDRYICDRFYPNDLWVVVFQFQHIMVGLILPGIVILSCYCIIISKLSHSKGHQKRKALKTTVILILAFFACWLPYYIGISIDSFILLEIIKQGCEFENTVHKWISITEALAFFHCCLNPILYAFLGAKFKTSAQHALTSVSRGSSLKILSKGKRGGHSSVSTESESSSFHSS

SMILES	effect of clinical inhibition of CXCR4 (CXCR4)	intra-tumoral cytotoxic T cell activity [1]
c1cc(CN2CCCNCCNCCCNCC2)ccc1CN1CCCNCCNCCCNCC1 [AMD3100]	integrated immune response^133	
CCCCc1nc(Cl)c(CO)n1Cc1ccc(-c2ccccc2-c2nn[nH]n2)cc1 [losartan]		increase
